Data set [1] has as its system human eosinophils. Briefly: Inhibition of eosinophil activation by formyl-MetLeuPhe (fMLP); oxidative burst (lucigenin chemiluminescence). It counts as cell-based. The conditions noted are these: fMLP 1 μM, lucigenin 25 μM, purified human eosinophils. As to the method:
Anti-inflammatory activity: Inhibition of eosinophil activation by formyl-MetLeuPhe (fMLP)
Purified human eosinophils (10^4 /well in 0.2 ml HBSS) are stimulated with fMLP (1 μM) in the presence of lucigenin (25 μM). Inhibition of the oxidative burst (measured as changes in chemiluminescence) is determined from dose response curves using the logistic equation.

Data set [2] in a line: Water solubility. It counts as physicochemical. The conditions noted are these: N-methyl-D-glucamine salt.

The text below walks through data of patent US6136821A, “Naphthyridine derivatives” (Novartis AG, priority 1996, dated 2000).

Usually IC50 stands for the concentration needed to halve the response being measured. `Nc1cc2cccnc2c(-c2cccc3nonc23)n1` [Example 2, 6-amino-8-(4-benzo[c]furazanyl)-1,7-naphthyridine] returned an IC50 in data set [1] of 6 nM.
For the compound `CNC[C@H](O)[C@@H](O)[C@H](O)[C@H](O)CO.O=C(O)c1ccc(-c2cc3cccnc3c(-c3cccc4nonc34)n2)cc1` [Example 34, 6-(4-carboxyphenyl)-8-(4-benzo[c]furazanyl)-1,7-napthyridine: salt with N-methyl-D-glucamine], the water solubility entry in data set [2] was “water soluble”.
